Data published in article PMC9234961 (Journal of Medicinal Chemistry, 2022).
Like-named read-outs stand apart in the source and are kept apart here.

Tests used:
AR = target: T1, AR (Homo sapiens, UniProt P10275); assay: SAFETYScan NHR Nuclear Translocation, Agonist; format: cell-based
T1 sequence (P10275 1-920): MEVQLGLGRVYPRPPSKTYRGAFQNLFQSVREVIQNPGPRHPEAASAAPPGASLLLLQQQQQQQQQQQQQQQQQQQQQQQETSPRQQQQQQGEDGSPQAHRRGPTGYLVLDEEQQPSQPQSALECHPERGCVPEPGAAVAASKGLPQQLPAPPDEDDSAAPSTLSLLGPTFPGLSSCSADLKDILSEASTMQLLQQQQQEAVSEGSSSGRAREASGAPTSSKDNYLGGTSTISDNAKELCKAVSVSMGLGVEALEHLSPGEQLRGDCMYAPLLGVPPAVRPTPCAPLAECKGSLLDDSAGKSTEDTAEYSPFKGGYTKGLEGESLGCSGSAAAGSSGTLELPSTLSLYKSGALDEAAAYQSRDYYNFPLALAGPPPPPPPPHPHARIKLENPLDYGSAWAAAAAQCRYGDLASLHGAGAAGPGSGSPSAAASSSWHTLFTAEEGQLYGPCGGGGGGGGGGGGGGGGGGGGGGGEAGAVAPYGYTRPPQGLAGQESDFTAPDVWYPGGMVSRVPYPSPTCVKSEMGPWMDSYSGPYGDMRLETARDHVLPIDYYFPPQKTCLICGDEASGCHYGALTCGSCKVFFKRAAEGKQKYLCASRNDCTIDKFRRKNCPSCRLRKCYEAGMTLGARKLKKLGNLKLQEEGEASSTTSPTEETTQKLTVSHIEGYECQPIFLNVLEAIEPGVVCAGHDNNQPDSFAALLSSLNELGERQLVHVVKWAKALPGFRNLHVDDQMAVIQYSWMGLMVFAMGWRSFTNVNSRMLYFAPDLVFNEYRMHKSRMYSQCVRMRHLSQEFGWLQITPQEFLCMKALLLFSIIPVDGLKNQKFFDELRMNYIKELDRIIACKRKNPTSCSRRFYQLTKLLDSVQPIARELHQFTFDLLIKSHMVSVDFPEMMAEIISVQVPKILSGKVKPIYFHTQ
Description: Supplement jm1c02175_si_002.xlsx, sheet "SAFETYScan" | column: RC50 (uM); Max Response

[1] = In vivo pharmacokinetic study in Balb/C mice; parameters: species or system mouse; settings: for Vd: 1 mg/kg, read-out: Vss
[2] = logD7.4 assay (Chrom log D method); format: physicochemical; settings: reversed-phase HPLC on Phenomenex Luna C8 column, pH 7.4, read-out: Measured logD7.4
In short: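 Samples at 1mM in 10% DMSO/90% Trizma buffer (100mM Trizma in 75/25 methanol/water) injected onto a C8 column at 30°C under gradient elution at 2 mL/min. Retention calibrated against calibration and validation standards.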

BCL6 in Karpas 422 cells = BCL6 in Karpas 422 cells (Homo sapiens, UniProt P41182); assay: cell-based
Procedure: 3.2 Mesoscale Discovery (MSD) Degradation Assay
An MSD assay was developed for screening of compounds to determine the degradation of endogenous BCL6 in OCI-Ly1 cells. Briefly, test compounds in DMSO or DMSO alone to a total of 1332.5 nL/well were dispensed to a 96-well Nunc™ Edge 2 plate (ThermoFisher Scientific, 267544) using an Echo® 550 acoustic […]
supplemented with 10% heat-inactivated fetal bovine serum (Sera Plus, PAN Biotech, P30-3702) were […]
incubation at 37 °C + 5% CO2 the plate was centrifuged at 300 x g for 5 minutes. […]
plate washer for all wash and aspiration steps, media was removed and cells were rinsed with PBS, centrifuged as before and PBS removed. Cells were lysed in 50 µL ice-cold lysis buffer at pH 7.4 containing 50 mM Tris-HCl, 150 mM NaCl, 1 % Triton X-100 (v/v), 1 mM PMSF, 1 mM activated sodium vanadate, 1 mM EDTA, phosphatase inhibitors 2 and 3 (1:50 dilution) and protease inhibitor cocktail (1:100 dilution).
20 °C or continuing the assay. A 96-well MSD standard bind plate (MSD, L15XA-3) which was coated overnight with 1 µg/mL anti-human BCL6 goat antibody in PBS (R&D Systems, AF5046) was blocked in 3% BSA in TBS + 0.1% Tween-20 for 1 hour with shaking. Wells were emptied thoroughly before 40 µL/well of lysate was transferred from the cell plate. The MSD plate was incubated at RT for 1 hour with shaking then washed three times with TBS + 0.1 % Tween-20. Antibodies were prepared in TBS + 0.1% Tween-20 + 1% BSA. Anti-human BCL6 rabbit antibody (Cell Signalling Technology, 14895S) was added at 1:100 dilution at 25 µL/well. The plate was incubated and washed as before. MSD Sulfo-tag anti-rabbit detection antibody (MSD, R32AB-1) at 1:1000 dilution at 25 µL/well was added. The plate was incubated and washed as before and MSD Gold read buffer (MSD R92TG) at 1:1 dilution with water at 150 µL/well was added. The plate was read within 10 minutes on the MSD Quickplex reader. The % inhibition at each […]
3.3 Cell proliferation assay
Aldrich) supplemented with 10% FBS (Gibco). […]
transferred onto the cells.
Assay plates containing cells […]

C[C@H]1C[C@@H](O)CN(c2ncc(Cl)c(Nc3ccc4c(c3)c3c(c(=O)n4C)OCC(F)(F)[C@H](C4CC4)N3)n2)C1 [12a CCT373566, (S)-10-((5-Chloro-2-((3R,5S)-3-hydroxy-5-methylpiperidin-1-yl)pyrimidin-4-yl)amino)-2-cyclopropyl-3,3-difluoro-7-methyl-1,2,3,4-tetrahydro-[1,4]oxazepino[2,3-c]quinolin-6(7H)-one]
Emax (AR; read-out: Max Response): 0% | EC50 (AR; read-out: RC50 (EC50)): > 10000 nM | appearance of mice after dosing ([1]; 1 mg/kg i.v. and 5 mg/kg p.o., female Balb/C mice, after dosing and 24 h after dosing): appeared normal | increase in free concentration/exposure in vivo compared to CCT369260 ([1]; 5 mg/kg po, BALB/c mice): over fivefold increase | Vd ([1]; Balb/C, mouse, whole blood, intravenous, initial PK studies): 0.47 L/kg | CL as % Qh ([1]; female Balb/C mice): 6 % Qh | bioavailability ([1]; female, Balb/C, mouse, in vivo, po, 5 mg/kg): 44% | Vd ([1]; mouse, in vivo, female Balb/C mice): 0.47 L/kg | clearance ([1]; mouse, in vivo, iv, female Balb/C mice, 1 mg/kg i.v.): 5.7 mL/min/kg | half-life at 6 h ([1]; mouse, in vivo, po, 5 mg/kg, female Balb/C mice): 1.15 h | Cmax ([1]; mouse, in vivo, female Balb/C mice, 1 mg/kg i.v. and 5 mg/kg p.o.): 3.95 µM | CLu ([1]; unbound clearance, female Balb/C mice): 4670 mL/min/kg | chromatographic logD [2]: 3 | Dmax (BCL6 in Karpas 422 cells; KARPAS-422, read-out: MSD degrader assay [Karpas 422] Dmax): 85% | DC50 (BCL6 in Karpas 422 cells; read-out: MSD degrader assay [Karpas 422] DC50, Karpas 422 cells): 1 nM
